Biological target: T1, APEH partially purified from human blood cells (Homo sapiens, UniProt P13798)
T1 construct: incubated with APEH partially purified from human blood cells; from tissue; host or cells: human red blood cells (erythrocyte hemolysate from donors' blood)
T1 sequence (P13798 1-732): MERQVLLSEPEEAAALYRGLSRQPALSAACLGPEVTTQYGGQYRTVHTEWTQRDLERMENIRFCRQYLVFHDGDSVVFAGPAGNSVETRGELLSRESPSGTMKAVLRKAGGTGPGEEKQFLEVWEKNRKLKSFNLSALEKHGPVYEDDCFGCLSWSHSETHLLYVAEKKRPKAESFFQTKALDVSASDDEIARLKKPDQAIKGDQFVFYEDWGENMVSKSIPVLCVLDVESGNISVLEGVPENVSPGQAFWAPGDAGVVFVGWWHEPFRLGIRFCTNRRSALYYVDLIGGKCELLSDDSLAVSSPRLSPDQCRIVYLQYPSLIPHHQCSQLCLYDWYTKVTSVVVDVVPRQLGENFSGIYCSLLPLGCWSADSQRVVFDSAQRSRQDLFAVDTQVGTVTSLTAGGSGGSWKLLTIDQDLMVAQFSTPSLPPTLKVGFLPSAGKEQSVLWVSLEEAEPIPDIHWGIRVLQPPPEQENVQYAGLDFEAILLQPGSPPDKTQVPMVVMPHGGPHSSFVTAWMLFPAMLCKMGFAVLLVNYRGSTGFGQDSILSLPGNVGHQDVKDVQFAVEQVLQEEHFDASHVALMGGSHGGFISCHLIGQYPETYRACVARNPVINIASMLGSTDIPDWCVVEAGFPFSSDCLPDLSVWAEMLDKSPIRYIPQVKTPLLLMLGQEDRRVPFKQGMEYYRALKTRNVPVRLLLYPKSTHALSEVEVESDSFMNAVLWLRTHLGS
Test: Treatment of peptides with APEH and assessment of proteolysis by LC-MS
Format: biochemical
Settings: APEH 0.7 μg, 37 °C, 48 h; for % Degradation (overall % of peptide degraded upon exposure to APEH): sum of fragment % of Table 2(a), Tris-HCl 25 mM pH 7.5, N.D. = not degraded
Procedure: In order to identify the potential cleavage sites of APEH on the oxidized GDF11[48-64], the peptide was incubated alone or in combination with the enzyme and the corresponding reaction mixtures were analyzed by LC-MS. The same experiments were performed using the non-oxidized analogues as control.
Blood samples were taken from donors using syringes with heparin. In accordance with ethical principles stated in the Declaration of Helsinki, as well as with approved national and international guidelines for human research, a written informed consent was obtained from participants. The erythrocytes were separated from the plasma by centrifugation at 1800× g for 5 min at 4 °C and washed twice with an isotonic solution (10 mM Tris-HCl pH 7.6, […]; 4 °C). Lysis of erythrocytes was carried out by incubation in hypotonic solution (25 mM Tris/HCl, pH 7.5) for 30 min on ice. The hemolysate was obtained by centrifugation of the lysate at 9200× g for 40 min at 4 °C. Then, the ‘soluble fraction’ was loaded onto a DEAE Sepharose Fast Flow column, connected to an AKTA FPLC system (Amersham Biosciences, Amersham, UK), previously equilibrated in 25 mM Tris-HCl (pH 7.5) (buffer A). The bound proteins were eluted using a linear ionic strength gradient (0–100%) of 1 M NaCl in buffer A at a flow rate of 1 mL min^−1. The active fractions were collected, pooled, dialyzed against 25 mM Tris-HCl pH 7.5 and loaded on a Superdex 200 PC 3.2/30 column (Pharmacia Biotech, Stockholm, Sweden) connected to a SMART System (Pharmacia Biotech, Stockholm, Sweden). The bound proteins were eluted with 25 mM Tris-HCl buffer, pH 7.5, containing 50 mM NaCl, at a flow rate of 0.1 mL min^−1. The active fractions were collected, pooled, dialyzed against 25 mM Tris-HCl pH 7.5 and stored in the same buffer supplemented with 5% glycerol. Enzyme purification was monitored using Ac-Met-7-amino-4-methylcoumarin (AMC) as substrate. Active fractions were analyzed by SDS-PAGE (12%) in order to evaluate the enrichment of the protein during the various purification steps. The protein was also characterized by Western Blot analysis. Aliquots of protein samples were subjected to SDS-PAGE (8%), and then electroblotted onto PVDF membranes (ImmobilonTM, Millipore, Milan, Italy). Membranes were next incubated with the specific primary antibody (sc-102311, 1:5000, Santa Cruz Biotechnology, USA) and then with the horseradish peroxidase-conjugated secondary antibody for 1 h at 37 °C (1:5000, Santa Cruz Biotechnology, Dallas, TX, USA). The immune complexes formed were visualized by enhanced chemiluminescence and autoradiography, according to the manufacturer’s protocol (Amersham Biosciences, Amersham, UK). Molecular mass of the native enzyme was established by gel filtration chromatography on a Superdex 200 PC 3.2/30 column (Pharmacia Biotech, Stockholm, Sweden), connected to a SMART system (Pharmacia Biotech, Stockholm, Sweden), and calibrated with BioRad gel filtration standards (BioRad, Milano, Italy; code 151-1901). The enzyme inhibition assay was performed on APEH preparation using the selective and potent inhibitor AA74-1 (SML0358, Sigma-Aldrich, Milano, Italy). Mixtures containing appropriate amount of inhibitor (62 µM) and APEH sample (0.7 μg) were pre-incubated for 30 min at 37 °C; then the substrate Ac-Met-7-amino-4-methylcoumarin (AMC) was added to the assay mixture and the enzymatic activity was followed as previously described. Control samples were prepared by pre-incubating the same amounts of APEH without the inhibitor and then assayed following the same procedure.
In total, 10 nmol/200 μL of each molecule was incubated with APEH partially purified from human blood cells (0.7 μg, 24.000 total units) at 37 °C for 48 h in Tris-HCl 25 mM pH 7.5. […]

[1] = 10 nmol/200 μL peptide, Tris-HCl 25 mM pH 7.5, EIC peak areas, average of three independent experiments
[2] = 10 nmol/200 μL peptide, Tris-HCl 25 mM pH 7.5, EIC peak areas, average of three independent experiments, listed as GDF11[48-64]ox
[3] = 10 nmol/200 μL peptide, Tris-HCl 25 mM pH 7.5, EIC peak areas, average of three independent experiments, listed as GDF11 wt

| % fragment cleaved at L60 (Ac-...HTHL, lacking VQQA), percentage of the initial substrate [1] [%] | % fragment cleaved on carboxy side of H59 (Ac-...HTH, lacking LVQQA), percentage of the initial substrate [1] [%] | % fragment cleaved on carboxy side of Q62 (Ac-...HTHLVQ, lacking QA), percentage of the initial substrate [1] [%] | % intact peptide left after APEH exposure (percentage of the initial substrate) [1] [%] | % fragment cleaved at L60 (Ac-...HTHL, lacking VQQA), percentage of the initial substrate [2] | % fragment cleaved on carboxy side of H59 (Ac-...HTH, lacking LVQQA), percentage of the initial substrate [2] | % fragment cleaved on carboxy side of Q62 (Ac-...HTHLVQ, lacking QA), percentage of the initial substrate [2] | % fragment cleaved on carboxy side of H59 (Ac-...HTH, lacking LVQQA), percentage of the initial substrate [3] [%] | % fragment cleaved on carboxy side of Q62 (Ac-...HTHLVQ, lacking QA), percentage of the initial substrate [3] [%] | cleavage at H59 as % of the total processed peptide (Tris-HCl 25 mM pH 7.5) | cleavage at L60 as % of the total processed peptide (Tris-HCl 25 mM pH 7.5) | cleavage at Q62 as % of the total processed peptide (Tris-HCl 25 mM pH 7.5) | % Degradation (overall % of peptide degraded upon exposure to APEH) (10 nmol/200 μL peptide) [%] | % Degradation (overall % of peptide degraded upon exposure to APEH) (10 nmol/200 μL peptide, listed as GDF11[48-64]ox) | susceptibility to APEH endoprotease cleavage (in words) (Tris-HCl 25 mM pH 7.5) | Substance |
| --- | --- | --- | --- | --- | --- | --- | --- | --- | --- | --- | --- | --- | --- | --- | --- |
| 8.4 | 25.6 | 16.4 | 49.6 | about 8% | about 26% | about 16% | ~28 | 18 | around 50% | about 17% | around 32% | 50.4 | around 50% |  | Ac-EYM(ox)FM(ox)QKYPHTHLVQQA-NH2 [GDF11[48-64] wt ox, GDF11[48-64]wt bearing sulphoxide groups on M50 and M52, by 3% H2O2 treatment] |
|  |  |  |  |  |  |  |  |  |  |  |  |  |  | No cleavage | Ac-EYMFMQKYPHTHLVQQA-NH2 [GDF11[48-64]wt, peptide reproducing the 48–64 region of GDF11 protein, acetylated and amidated] |

Source: paper PMC8745263 (International Journal of Molecular Sciences, 2021)
